Data taken from PubChem BioAssay (NCI).
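Briefly, cells in 96-well plates were exposed to five compound concentrations for 48 h, and endpoints were estimated by linear interpolation. Here, GI50 denotes the concentration required for 50% inhibition of growth. TGI: total growth inhibition.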

Key:
Assay in all cases: NCI-60 cell line screen, 48 h
[1] = test system: A549 NSCLC
[2] = test system: CAKI-1 renal
[3] = test system: HOP-62 NSCLC
[4] = test system: IGROV1 ovarian
[5] = test system: MALME-3M melanoma
[6] = test system: SF-268 CNS
[7] = test system: SF-539 CNS
[8] = test system: SK-OV-3 ovarian
[9] = test system: BT-549 breast
[10] = test system: PC-3 prostate

Row | Structure (SMILES) | GI50 [1] [µM] | TGI [1] [µM] | GI50 [2] [µM] | TGI [2] [µM] | GI50 [3] [µM] | TGI [3] [µM] | GI50 [4] [µM] | TGI [4] [µM] | GI50 [5] [µM] | TGI [5] [µM] | GI50 [6] [µM] | TGI [6] [µM] | GI50 [7] [µM] | TGI [7] [µM] | GI50 [8] [µM] | TGI [8] [µM] | TGI [9] [µM] | TGI [10] [µM] | GI50 [9] [µM] | GI50 [10] [µM]
1 | CC(=O)[CH-]C(=O)c1ccccc1.CC(=O)[CH-]C(=O)c1ccccc1.CN(C)c1ccc([O-])cc1.CN(C)c1ccc([O-])cc1.Cl.[Ti+4] | 29 | > 31.6 | 21 | > 31.6 | 21.8 | > 31.6 | 46.8 | > 100 | 14.8 | 26.4 | > 31.6 | > 31.6 | 19 | > 31.6 | 17.1 | > 31.6 |  |  |  | 
2 | COC(=O)C1(C(C)C)CCc2c(OC)ccc(OC)c2C1=O (centres undefined) |  | > 100 |  | > 100 |  | > 100 |  | > 100 |  | > 100 |  | > 100 |  | > 100 |  | > 100 |  |  |  | 
3 | O=C(CC(=O)c1cccc2ccccc12)C(=O)Nc1ccc(Cl)cc1 |  | > 100 |  | > 100 |  | > 100 |  | > 100 |  | > 100 |  | > 100 |  | > 100 |  | > 100 |  |  |  | 
4 | COc1cc2cc(OC)c3cc4c(cc3c2c(OC)c1OC)OCO4 |  | > 95.8 |  | > 100 |  | > 100 |  | > 100 |  | > 100 |  | > 100 |  | > 55.4 |  | > 100 |  |  |  | 
5 | CCn1c(C)nn2c(=O)c3ccccc3nc2c1=O |  | > 100 |  | > 100 |  | > 100 |  | > 100 |  | > 100 |  |  |  | > 100 |  | > 100 |  |  |  | 
6 | CC1(C)C(=O)/C=C\C(=O)C(C)(C)C2=CC=C(O2)C(C)(C)C(=O)/C=C\C(=O)C(C)(C)C2=CC=C1O2 |  | > 100 |  | > 100 |  | > 100 |  | > 100 |  | > 100 |  | > 100 |  |  |  | > 100 |  |  |  | 
7 | Cc1nc2c(ccc3ncccc32)[nH]1 |  | > 100 |  | > 100 |  | > 100 |  | > 100 |  | > 100 |  | > 100 |  | > 100 |  | > 100 |  |  |  | 
8 | C=CCOc1ccc2c(C)cc(=O)oc2c1C |  | > 100 |  | > 100 |  | > 100 |  | > 100 |  | > 100 |  | > 100 |  | > 100 |  |  | > 100 | > 100 |  | 
9 | CCCC1C(=O)CCc2c(OC)ccc(OC)c21 (centres undefined) |  | > 100 |  | > 100 |  | > 100 |  | > 100 |  | > 100 |  | > 100 |  | > 100 |  | > 100 |  |  |  | 
10 | COC(=O)CC[N+]1=CCC(c2ccccc2)(c2ccccc2)O1 |  | > 100 |  | > 100 |  | > 100 |  | > 100 |  |  |  | > 100 |  | > 100 |  | > 100 | > 100 | > 100 |  | 
11 | O=C(O)CCNCCCNCCC(=O)O |  | > 100 |  | > 100 |  | > 100 |  | > 100 |  | > 100 |  | > 100 |  | > 100 |  | > 100 |  |  |  | 
12 | COC(=O)/C(C#N)=C1\NC(=O)c2ccccc21 |  | > 100 |  |  |  | > 100 |  | > 100 |  | > 100 |  | > 100 |  | > 100 |  | > 100 |  |  |  | 
13 | CCN1CCN(Cc2ccc(NC(=O)c3cccc(C#Cc4cccc5[nH]nc(N)c45)c3)cc2C(F)(F)F)CC1 | 1.13 | 2.48 | 0.485 | 1.76 |  |  | 0.0681 | 0.717 | 0.0273 | 0.422 | 0.62 | 2.01 | 0.205 | 0.709 | 0.802 | 2.2 | 2.41 | 3.13 | 1.1 | 1.36
14 | CCOC(=O)C(C)(C)Oc1ccc2c(-c3ccccc3)cc(=O)oc2c1 |  | > 100 |  |  |  | 63.7 |  | > 100 |  | 73.6 |  | > 100 |  | 86.5 |  |  |  |  |  | 
15 | Cc1cc(NS(=O)(=O)c2ccc(Nc3c4ccccc4nc4c(C(=O)N5CCN(CCOS(C)(=O)=O)CC5)cccc34)cc2)no1 |  | > 100 |  | > 100 |  | > 100 |  | > 100 |  | > 100 |  | > 100 |  | > 100 |  | > 100 |  |  |  | 
16 | COc1cc2ccnc([C@@H](OC(=O)c3ccccc3)c3ccc(OC)c(OC)c3OC)c2cc1OC |  | > 100 |  | > 100 |  |  |  | > 100 |  | 99.8 |  | > 100 |  | > 100 |  | > 100 |  |  |  | 
17 | COC1/C=C/OC2(C)Oc3c(C)c(O)c4c(O)c(c(/C=N/Nc5ccc([N+](=O)[O-])cc5[N+](=O)[O-])c(O)c4c3C2=O)NC(=O)C(C)=C/C=C/C(C)C(O)C(C)C(O)C(C)C(OC(C)=O)C1C (centres undefined) | 8.01 | 17.3 | 2.9 | > 50 | 2.47 | 25.5 | 1.87 | > 50 | 1.21 | 6.13 | 1.59 | 11.4 | 1.9 | 19.4 | 10.6 | 31.1 |  | 3.92 |  | 1.34
18 | CCOC1Oc2ccccc2C(=O)/C1=C/Nc1ccc(C(C)=O)cc1 (centres undefined) | 50.3 | > 100 | 19 | 45.3 | 18.5 | 40 | 19.5 | > 100 |  |  | 33.7 | > 100 | 23.9 | 56.6 | 44.4 | > 100 | 92.3 | 93.3 | 29 | 25.4
19 | O=C(Nc1nc2ccc([N+](=O)[O-])cc2s1)C(=O)C(C1OC(=O)c2ccccc21)[N+](=O)[O-] (centres undefined) |  | > 100 |  | > 100 |  | > 100 |  | > 100 |  | > 100 |  | > 100 |  | > 100 |  | > 100 |  |  |  | 
20 | OCCN(CCO)c1ncnc2c1ncn2Cc1ccc(CCl)cc1 | 18.3 | 53.7 | 14.5 | 30 | 23.8 | 41.1 | 19.7 | 40.3 | 12.8 | 27.3 | 19.8 | 49.8 | 10.3 | 24.2 |  |  | 24.6 | 33.7 | 11.7 | 14
